# Measured values: a melting point compilation (Tetko et al.; mined from patent text by program, amines drawn as free bases though some values may be those of a salt)
row,Structure (SMILES),melting point [°C]
1,Cc1cc(CCCCCCCOc2ccc(C(=O)O)cc2)on1,129 to 130
2,COc1cc([N+](=O)[O-])c(N)cc1OC(F)F,144 to 145
3,CC(C)N1CNS(=O)(=O)c2sc(Cl)cc21,100 to 102
4,O=C1Cc2ccccc2C1(Cc1ccncc1)Cc1ccncc1,95 to 96
5,CC(=O)N1CC(CCN2CCC(c3c[nH]c4cc(Cl)ccc34)CC2)c2ccccc21 (stereo not drawn),188 to 190
6,COC(=O)Nc1cc(C(C)(C)C)no1,86.5 to 87
7,CCOC(=O)c1c(N)sc2c1CN(C(=O)OCC)C2,154 to 156
8,O=C(N[C@H](Cc1ccc(C(F)(F)F)cc1)[C@@H](O)c1ccc(F)cc1)c1ccc(CO)c2ccccc12 (racemic),202 to 203
9,O=C(OCC1CCC1)c1ncn2c1[C@@H]1CCCN1C(=O)c1c(Cl)cccc1-2,204 to 205
10,CN1CCC(C2(O)c3ccccc3C=Cn3ccnc32)CC1 (stereo not drawn),155
11,CC12C=CC(=O)C=C1CCC1C2C(=O)CC2(C)C(SCc3ccc(Cl)cc3)CCC12 (stereo not drawn),176 to 180
12,Cc1csc2c(Sc3nnc(N)s3)ncnc12,221 to 223
13,Cc1cc(C)c2nc(C3CC3)n(Cc3ccc(C4(C(=O)O)Cc5ccccc5C4)s3)c2n1,250 to 252
14,O=C1c2ccccc2C(=O)N1CC(O)c1cnc(-c2ccccc2)nc1-c1ccccc1 (stereo not drawn),149 to 159
15,CCN1c2c(occ(C=O)c2=O)-c2ccccc2S1(=O)=O,160 to 162
16,CC(C)(C)c1ccc(N(CCCOc2ccc(C(=O)O)cc2)C(=O)c2ccc3c(c2)OCO3)cc1,199 to 203
17,Cn1nc(-c2ccccc2)c(C=Cc2ccccc2C(=O)O)c1Cl,161 to 163
18,COc1cc2c3ccc(OC)c(OC)c3n(Cc3ccc(C#N)cc3)c2cc1OC,147 to 148
19,Brc1ccc(-c2cccs2)s1,55 to 56
20,CC(=O)Nc1cscn1,176
21,CN(C)CCOc1cc(NS(=O)(=O)c2ccc(Oc3cccc(Cl)c3C#N)cc2)ccc1Cl,103 to 106
22,CCCCCCCCCCOc1ccc(C(O)C(O)c2ccc(C(=O)OC)cc2)nc1CCC(=O)OC (mixture of isomers),88 to 92
23,COc1cc(C(=O)O)ccc1Cc1c(Cl)n(C)c2ccc(CCNC(=O)N(C)C)cc12,215
24,CCCCCCCCCCCCCc1nc(N)no1,90 to 91
25,O=C(Nc1ccc(Cl)cc1)NC1CCN(C(=O)Cc2c[nH]cn2)CC1,174 to 176

row,Structure (SMILES),melting point [°C]
1,CON=C(C(=O)OC)c1c(C)cccc1CBr,76 to 78
2,COc1cccc2c1nc(C(F)F)n2-c1nc(Nc2cncnc2)nc(N2CCOCC2)n1,293 to 295
3,Nc1ccc2c(c1)OCC(CN1CC=C(c3c[nH]c4ccccc34)CC1)O2 (stereo not drawn),199 to 200
4,CC(C)(C)OC(=O)Nc1ccc(-c2ccccc2)cc1N,137
5,CCCP(=O)(CCC)Cc1ccc(NC(=O)/C=C/c2cccc(-c3ccc(C)cc3)c2)cc1,225 to 227
6,Cc1cn2c(n1)Cc1ccccc1NC2=O,234 to 236
7,O=C1Cc2cc3c(cc2CCN1Cc1ccccc1)OCO3,141 to 142
8,Cc1cc(-c2cc([N+](=O)[O-])ccc2F)cc(C)n1,169 to 171
9,CN(C(=O)CN1C(=O)C(NC(=O)Nc2cccc(C#N)c2)N=C(CN2CCSCC2)c2ccccc21)c1ccccc1 (stereo not drawn),165
10,CCN(CC)CCOC1c2ccccc2C(=O)N1c1ccccc1 (stereo not drawn),146 to 147
11,O=P(O)(O)Cc1cc(Cl)c(Oc2ccc(O)c(Cc3ccc(F)cc3)c2)c(Cl)c1,207 to 210
12,COc1ccc(S(=O)(=O)N(COCC[Si](C)(C)C)c2ccccc2-c2cc(F)ccc2C(C)=O)cc1,94 to 95
13,O=c1[nH]c(=O)c2c3c(cc([N+](=O)[O-])c2[nH]1)OCO3,285
14,COC(=O)C1(C(C)C)Oc2c(OC)cccc2C1=O (stereo not drawn),87 to 88
15,Cn1ccnc1N1CCN(c2ccc([N+](=O)[O-])cc2)CC1,193 to 194
16,COc1ccc(C(=O)Nc2ccccc2)cc1NC(=S)Nc1cccc(C(=O)O)c1,196 to 197
17,CC(=O)OCc1cc2c3ccccc3[nH]c(=O)n2n1,177 to 179
18,Cc1oc(-c2cccs2)nc1COc1ccc(CON=C(CCCCCCC(=O)O)c2ccccc2)cc1,106 to 108
19,CCOC(=O)C(C)=C(CC)NC(=O)Nc1cc(OC(C)C)c(Cl)cc1F,104 to 106
20,CN(C)C(=O)CCC12CC(c3ccccc31)c1ccccc12,186 to 187
21,Cc1noc(C)c1-c1ccc2c(c1)ncc1ncn(-c3ccccc3C(C)(C)C)c12,216
22,CC(=O)Nc1ccc(C(=O)OC2C=C(C)C(=O)CC(C)(C)C2O)cc1 (stereo not drawn),134 to 135
23,N#CC(c1ccccc1)(c1ccccc1)[C@H]1CCCN(CCc2ccccc2)C1,134 to 138
24,CCC(=O)C=Cc1ccc(OCc2ccccc2)cc1,123 to 125
25,O=C(O)CCC(=O)Oc1ccc(N(CCCl)CCCl)cc1,98 to 100

row,Structure (SMILES),melting point [°C]
1,O=CCOc1ccccc1OCC(F)(F)F,55.3 to 57.5
2,COC(=O)C(Cl)(Cl)Cc1c(Cl)cc(Cl)cc1Cl,56 to 57
3,CCON1CCC(C#N)(NC(=O)Cc2c(C)cc(C)cc2C)CC1,194 to 195
4,Cc1cc(C(=O)c2[nH]c3cc(Cl)ccc3c2CC(=O)O)no1,227 to 229
5,O=C(O)CCCCc1ccccc1CNC(=O)C1Cc2ccccc2N1S(=O)(=O)c1ccc(-c2cccc(C(F)(F)F)c2)cc1 (stereo not drawn),98 to 99
6,CN(C)CCc1nc(C(N)=O)c2n1-c1ccc(Cl)cc1C(c1ccccc1Cl)=NC2,249 to 251
7,COC(=O)c1cc(-c2cccc(Cl)c2Cl)c(C(=O)OC)[nH]1,143 to 145
8,CCCc1nc2c(N)nc(C)c(C)c2n1CCCS(=O)(=O)c1ccc(C(=O)OCC)cc1,169 to 171
9,CC(C)(C)c1ccc(Cn2c3c(c4cc(OCc5ccccc5)ccc42)C(=O)C(=O)OC3)cc1,233 to 234
10,CC(=O)N[C@H]1CCN(C(=O)c2ccc(-c3[nH]nc4c3C(=O)c3c(NC(=O)NN5CCOCC5)cccc3-4)s2)C1,264 to 265
11,O=C(OC1CCCCC1)C1=C(O)c2ccccc2S(=O)(=O)N1,158
12,C=C(c1ccccc1)c1ccc(N(C)C)cc1,51 to 52
13,CCc1c(-c2ccc(OCc3ccccc3)cc2)c2cc(C(C)=O)c3ccc(CO)c1n32,190 to 191
14,COc1ccc(C(=O)O)cc1OC(=O)c1ccccc1,180 to 183
15,COCCOCc1c(C=O)sc2c(=O)c(C(=O)NCc3ccc(Cl)cc3)cn(C)c12,152 to 153
16,O=C(O)/C=C/c1ccc(C(=O)NC2CCCCC2)cc1,214
17,CN(C(=O)c1cccc(C(F)(F)F)c1)c1ccccc1CCCCC(=O)O,81 to 83
18,CN(CC(=O)O)C(=O)C(=O)c1cn(Cc2ccccc2)c2ccc(-c3cccc(OC(F)(F)F)c3)cc12,178 to 179
19,CCOC(=O)c1ccccc1-n1nnnc1C,98 to 100
20,CCOC(=O)C(C)(C)NC(=O)c1c(Cl)c2cc(Oc3ccc(C(F)(F)F)cc3)ccc2n1-c1ccc(OC(C)C)cc1,135 to 137
21,CCCCCn1ncc(C#N)c1N,143 to 144
22,O=C1ON(c2ccccc2Cl)C(c2ccccc2)C1c1ccccc1 (stereo not drawn),178 to 180
23,O=c1[nH]c(=O)n(C2CC(OCc3ccccc3)C(CO)O2)cc1C(F)(F)F (stereo not drawn),157 to 158
24,Cc1onc(NS(=O)(=O)c2cccc3ccccc23)c1Br,167 to 170
25,CC(=O)Cc1cc2c(cc1C(=O)c1ccc([N+](=O)[O-])c(C)c1)OCO2,146 to 148

row,Structure (SMILES),melting point [°C]
1,CCOc1cc(OCC)cc(-c2c(Cl)ncn2-c2ccc(S(C)(=O)=O)cc2)c1,227 to 231
2,CC(NC(=O)c1cc(OCC(F)(F)F)ccc1OCC(F)(F)F)C1CCCCN1 (stereo not drawn),95 to 97
3,Brc1ccc2c(c1)C1(c3ccccc3-c3ccccc31)c1ccccc1-2,181 to 183
4,Cc1nc(N2CCN(Cc3ccccc3)C2=O)sc1C(=O)NCc1ccccc1,169 to 171
5,CN(c1ccc(O)cc1)S(=O)(=O)c1ccc(C(F)(F)F)cc1,145 to 146
6,O=C1OC(P(=O)(O)C2OC(=O)c3ccccc32)c2ccccc21 (stereo not drawn),280 to 285
7,O=C(O)c1ccc(S(=O)(=O)Oc2ccc(-c3ccc(-c4c(Cc5ccccc5)sc5ccccc45)cc3)cc2Br)cc1O,117 to 119
8,S=c1[nH]nc(-c2ccc3ccccc3c2)s1,254 to 256
9,O=C(NN=Cc1ccnc2ccccc12)c1cccnc1,99.6
10,CCCCN1CCc2c(C)nc3ncnn3c21,72 to 75
11,O=C(O)CC1COc2ccccc2O1 (stereo not drawn),95
12,CC(=O)N(C)C(=O)ON=C1SCC(=O)NC1(C)C,218 to 220
13,CN(C)CC(C)(C)CNc1nccc(-c2c(-c3ccc(F)cc3Cl)nc3occn23)n1,124 to 126
14,CCC12CC(Cl)C3C4CCC(=O)C=C4CCC3C1C(O)CC2=O (stereo not drawn),169 to 170
15,COC(=O)c1cccc(-c2ccc(O)cc2)c1,135 to 136
16,CNC(=O)n1c(NC(=O)c2ccc(NC(=N)N)cc2)nc2ccccc21,188 to 190
17,O=C(NCCC(F)=C(F)F)C(=O)NCCC(F)=C(F)F,139 to 141
18,Cc1oc(-c2ccccc2)nc1COc1ccc(Cn2cc(CCC(=O)O)c(-c3ccccc3)n2)nc1,175 to 176
19,Fc1cccc(C2OC3(CCN(Cc4ccccc4)CC3)N3CCCCC23)c1 (stereo not drawn),113 to 115
20,CCOC(OCC)C(O)(Cc1c(NC(=O)C(C)(C)C)cnc(Cl)c1C)c1ccccc1 (stereo not drawn),133
21,COc1ccc(C2=NN(c3ccc(OCCBr)cc3)C(=O)[C@@H]3CC=CC[C@H]23)cc1OC,40 to 45
22,CN(C)C(=N)c1nn(-c2c(Cl)cc(C(F)(F)F)cc2Cl)c(N)c1S(=O)C(F)(F)F (stereo not drawn),123 to 126
23,NC(=O)Cc1c(-c2ccccc2)nn(-c2ccccc2)c1-c1ccccc1,123 to 124
